Data: article PMC9693223 (Molecules, 2022)
Where “and” joins values, the source holds several entries; their conditions need not be identical. Equal entries are not always repeated. Where two headings read alike, the source gives them in different places.

Legend:
[1] = system: L. mexicana Cas9 promastigotes; test: Alamar blue drug sensitivity assay, L. mexicana Cas9 promastigotes; assay type: cell-based, Leishmania mexicana; details: Leishmania mexicana, 120 h, 72 h + 48 h resazurin, at least 3 independent determinations, read-out: EC50 (µM) AVG ± SEM, Cas9
Description: We used L. mexicana promastigotes of the Cas9 strain developed by Beneke at al. to generate the ΔNT1 strain, and from there the Cas9^ΔNT1+TcrNT2 (see below); The original Cas9 strain was generously donated by Prof. Eva Gluenz (University of Bern, Switzerland). All strains in standard HOMEM (GIBCO, Life Technologies, Paisley, UK) supplemented with 10% heat-inactivated fetal bovine serum (FBS; PAA Laboratories, Linz, Austria) and 1% of a penicillin–streptomycin solution (10,000 U mL^−1 each; Life Technologies) at 25 °C, as described.
The Alamar blue assay (resazurin sodium salt) was used to determine the drug sensitivity of the L. mexicana promastigotes in vitro. The assay is based on the reduction of resazurin sodium salt (blue and non-fluorescent) to resorufin (pink color and fluorescent) by live cells. HOMEM medium with 10% FBS (100 μL) was added to all wells of a white 96-well plate apart from the first well. 200 μL of a known concentration of test compounds was diluted in HOMEM medium and placed in the first well. Compounds were tested in one plate and every compound was diluted over two rows (23 concentrations), leaving the last well of every dilution as a negative control having 100 μL HOMEM medium. Next, 100 μL of L. mexicana culture at a density of 2 × 10^6 cells mL^−1 was added into every well in the plate and incubated for 72 h at a temperature of 25 °C after which resazurin sodium salt (Sigma) (20 μL of a solution of 12.5 mg in 100 mL PBS) was added and the plate was incubated under the same conditions for a further 48 h. Fluorescence was measured in a FLUOstar OPTIMA plate reader (BMG Labtech, Germany), at a wavelength of 544 nm for excitation and 620 nm for emission. The EC50 values and fluorescence data were determined and plotted by the GraphPad Prism 8 Software using an equation for a sigmoid curve with variable slope. Pentamidine was used as positive control and every experiment was performed 3–4 times independently.

[2] = target: T1, TcrNT2 (Trypanosoma cruzi, UniProt Q4DHG0); test: Transport of [^3H]-thymidine by TcrNT2 expressed in L. mexicana Cas9^ΔNT1 (Km, inhibition); assay type: cell-based; details: for ΔG° (Gibbs free energy of interaction): calculated from Km or Ki at 25 °C
T1 sequence (Q4DHG0 entry or part of it): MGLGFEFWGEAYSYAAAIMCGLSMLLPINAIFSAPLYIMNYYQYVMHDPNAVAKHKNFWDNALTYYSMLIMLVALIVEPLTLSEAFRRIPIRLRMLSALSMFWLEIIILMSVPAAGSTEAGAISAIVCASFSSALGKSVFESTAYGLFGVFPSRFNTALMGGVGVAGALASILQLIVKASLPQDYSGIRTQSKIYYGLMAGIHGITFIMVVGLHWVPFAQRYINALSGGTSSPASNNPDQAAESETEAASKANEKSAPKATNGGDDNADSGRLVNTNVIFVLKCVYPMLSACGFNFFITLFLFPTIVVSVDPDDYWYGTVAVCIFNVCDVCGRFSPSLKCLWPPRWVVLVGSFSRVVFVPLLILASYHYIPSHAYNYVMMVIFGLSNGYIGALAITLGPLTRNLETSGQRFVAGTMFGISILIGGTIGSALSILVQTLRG
Experimental: These values can be used to calculate the Gibbs free energy of interaction ΔG°, but these experiments cannot distinguish between the test compound being transported or merely binding to the transporter and inhibiting the transit of the [^3H]-thymidine.
Transport assays were conducted with radiolabeled nucleosides [methyl-^3H]-thymidine (20 Ci/mmol; PerkinElmer (Waltham, MA, USA)) and [2,8-^3H]-adenosine (40 Ci/mmol; American Radiolabeled Chemicals (ARC, St-Louis, MO, USA)). Cells were harvested from mid-log phase cultures by centrifugation and washed into an assay buffer (AB) as described, at a density of 1 × 10^8 cells mL^−1. Transport assays were then performed exactly as described previously, using an oil-stop protocol. Briefly, 100 µL of cell suspension (10^7 cells) was mixed with 100 µL of [^3H]-substrate at 2 × final concentration and incubated for a pre-set time prior to the addition of 800 µL of ice-cold AB containing a saturating concentration of unlabeled permeant (usually 1 or 2.5 mM) and immediate centrifugation through an oil layer to separate cells from extracellular radiolabel. The 100 µL of [^3H]-substrate could also contain unlabeled substrate or an inhibitor at 2 × concentration, as appropriate. Next, the microfuge tubes were flash frozen in liquid nitrogen; the tips with the cell pellets cut off and collected in scintillation tubes. Cells were solubilized by incubation in 2% SDS under gentle shaking on a rocking platform prior to the addition of scintillation fluid (Scintilogic U, Lablogic, Sheffield, UK). The tubes stored in the dark overnight before counting in a 300SL Hidex Scintillation Counter (Lablogic).
Michaelis-Menten constants (Km) were calculated by plotting transport rates of [^3H]-substrate against the concentration, using the Michaelis-Menten equation V0 = Vmax([substrate]/([substrate] + Km)) and non-linear regression in GraphPad Prism 8. Inhibition constants (Ki) were calculated using the Cheng-Prusoff equation: Ki = IC50/(1 + (L/Km)), where L represents the radiolabel concentration. The IC50 was obtained by a non-linear regression of the inhibition curve of transport rate versus inhibitor concentration, using an equation for a sigmoid curve with variable slope (GraphPad Prism 8). The Gibbs free energy ΔG° was obtained using the equation ΔG° = −RTln(Ki), in which R is the gas constant and T is the absolute temperature. As discussed previously, these equations apply to competitive rather than non-competitive inhibition. Given that only close analogues of the substrate were used as potential inhibitors and that Hill slopes were consistently close to −1, it is very likely that inhibition was indeed competitive.

[3] = target: P1 transporter; details: T. brucei P1; ref [16],[17]; cited from earlier work
[4] = target: P2/TbAT1 aminopurine transporter; details: T. brucei P2; ref [16],[17]; cited from earlier work
[5] = system: L. mexicana Cas9^ΔNT1 promastigotes; test: Transport of [^3H]-thymidine by L. mexicana Cas9^ΔNT1 promastigotes; assay type: cell-based, Leishmania mexicana; details: 0.05 µM [^3H]-thymidine, Cas9^ΔNT1 cells, over 180 s
Experimental: It is well documented that the NT1 transport activity is responsible for the uptake of adenosine and of pyrimidine nucleosides in Leishmania spp.. […] We thus assessed the uptake of these two nucleosides in Cas9^ΔNT1. […] In contrast, the transport of 0.1 µM of [^3H]-adenosine by L. mexicana Cas9^ΔNT1 promastigotes was virtually abolished and became statistically identical to the uptake in the presence of 1 mM unlabeled adenosine (p > 0.05).
Figure 1 [^3H]-Adenosine and [^3H]-Thymidine transport by L. mexicana Cas9 and L. mexicana Cas9^ΔNT1. (A). Transport of 0.1 µM of [^3H]-adenosine by L. mexicana Cas9 and L. mexicana Cas9^ΔNT1 was measured over 20 s in the presence or absence of 1 mM unlabeled adenosine. (B). Transport of 0.05 μM of [^3H]-thymidine by L. mexicana Cas9 and L. mexicana Cas9^ΔNT1 was measured over 180 s in the presence or absence of 1 mM unlabeled thymidine, respectively. Symbols represent the average of triplicate determinations in a single representative experiment and error bars represent ± SEM.
Transport assays were conducted with radiolabeled nucleosides [methyl-^3H]-thymidine (20 Ci/mmol; PerkinElmer (Waltham, MA, USA)) and [2,8-^3H]-adenosine (40 Ci/mmol; American Radiolabeled Chemicals (ARC, St-Louis, MO, USA)). Cells were harvested from mid-log phase cultures by centrifugation and washed into an assay buffer (AB) as described, at a density of 1 × 10^8 cells mL^−1. […]

[6] = target: T1, TcrNT2; details: TcrNT2 expressed in T. brucei, cited from earlier work
[7] = system: NT1 transport activity; parameters: method as in PMID 28453984; details: NT1 transport activity in L. mexicana; ref [36]; cited from earlier work
[8] = system: L. mexicana Cas9 promastigotes; parameters: method as in de Almeida Fiuza et al. [41]; details: starred values, ref de Almeida Fiuza et al. [41], read-out: EC50 (µM) AVG ± SEM, Cas9; cited from earlier work
[9] = system: L. mexicana Cas9^ΔNT1 promastigotes; parameters: method as in de Almeida Fiuza et al. [41]; details: L. mexicana Cas9^ΔNT1 promastigotes; starred values; ref de Almeida Fiuza et al. [41]; read-out: EC50 (µM) AVG ± SEM, L. mexicana Cas9^ΔNT1; cited from earlier work
[10] = system: L. mexicana Cas9^ΔNT1+TcrNT2 promastigotes; parameters: method as in de Almeida Fiuza et al. [41]; details: L. mexicana Cas9^ΔNT1+TcrNT2 promastigotes; starred values; ref de Almeida Fiuza et al. [41]; read-out: EC50 (µM) AVG ± SEM, L. mexicana Cas9^ΔNT1+TcrNT2; cited from earlier work
[11] = system: intracellular T. cruzi amastigotes; details: T. cruzi in vitro; ref [16]; read-out: EC50 against T. cruzi in vitro; cited from earlier work

For Nc1ncnc2c1c(Br)cn2[C@@H]1O[C@H](CO)[C@@H](O)[C@H]1O [TH1003, 7-bromo-tubercidin], the EC50 [1] was 0.16 ± 0.018 µM, the Ki [2] was 784 ± 41 µM and the “ΔG° (Gibbs free energy of interaction)” value [2] was -19.8 kJ/mol. For the same compound, the Ki [3] was under 5 µM and the Ki [4] was under 5 µM.
In the case of Cc1cn([C@H]2C[C@H](O)[C@@H](CO)O2)c(=O)[nH]c1=O [thymidine], the “ΔG° (Gibbs free energy of interaction)” value [2] is given as -37.5 kJ/mol, the “rate of [^3H]-thymidine transport” value [5] is given as 0.00004 ± 0.000006 pmol(10^7 cells)^−1 s^−1 and the Km ([6]; ref [30], read-out: Km of thymidine uptake by TcrNT2) is given as ~0.2 µM and 0.223 µM and 0.22 µM. For the same compound, the Km [7] was 11.2 ± 2.4 µM.
For Nc1ncnc2c1ccn2[C@@H]1O[C@H](CO)[C@@H](O)[C@H]1O [Tubercidin, tubercidin], the EC50 [1] was 0.43 ± 0.15 µM, the Ki [2] was 852 ± 2 µM and the “ΔG° (Gibbs free energy of interaction)” value [2] was -17.5 kJ/mol. For the same compound, the “δ(ΔG°) with respect to ΔG° of thymidine” value ([2]; change in ΔG° relative to thymidine) was -20.0 kJ/mol, the EC50 [8] was 1.02 ± 0.16 µM and the EC50 [9] was 25.7 ± 0.94 µM. For the same compound, the EC50 [10] was 0.82 ± 0.13 µM, the Ki ([6]; earlier characterization, ref Campagnaro et al. [30], read-out: Ki on thymidine transport by TcrNT2) was 700 ± 110 µM and the EC50 [11] was 0.34 µM.
In the case of Nc1ncnc2c1c(-c1ccccn1)cn2[C@@H]1O[C@H](CO)[C@@H](O)[C@H]1O [7-(2-pyridyl)-tubercidin], the Ki [3] is listed as under 5 µM and the Ki [4] is listed as under 5 µM.
